Experimental data as given in patent publication US20230338539A1, “METHOD OF TREATING DIFFICULT TO ACCESS TUMORS WITH PHOTOACTIVATED CANCER THERAPY” (priority 2020, published 2023).

How the values were obtained:
[1] = tested on: syngeneic 4T1-HER2 tumors; assay: In-vivo X-PACT trial on syngeneic tumors (FIG. 6); design: species or system BALB/c mice; conditions: psoralen (AMT) alone with x-ray, phosphors alone with x-ray; relative to in-vitro expectation
Procedure: There were 6-8 mice per arm, and the study was repeated a second time, yielding effective sample sizes of 12-16. […] In the separate psoralen and phosphor control arms (blue and red respectively), 5 μM psoralen (AMT) and 100 μg of phosphor where applied. A consistent x-ray irradiation technique was used for all arms (except saline control) which was 2 Gy delivered at 75 kVp by 30 mA in 3 minutes.

[2] = tested on: KP158B (sarcoma); assay: UV light activated psoralen, Cell-Titer-Glo Luminescence Cell Viability Assay (FIG. 3A); type: cell-based, murine; conditions: psoralen 40 μM; UV light 0, 0.25, 0.5, 1.0 J/cm^2
Procedure: (§1) Metabolic cell viability was also assessed visually using Methylene blue staining and ATP-induced Luminescence imaging (Cell-Titer-Glo® Luminescence Cell Viability Assay). The luminescence imaging permitted investigation of the cytotoxicity of psoralen activated directly with a UV lamp, and in the absence of phosphors and x-ray radiation. […] N=4 for each cell line at each UV light condition (0, 0.25, 0.5, 1.0 J/cm^2). The psoralen concentration was 40 μM.

[3] = tested on: 4T1; assay: as above; type: cell-based, murine; conditions: psoralen 40 μM; UV light 0, 0.25, 0.5, 1.0 J/cm^2
Procedure: as §1

[4] = tested on: CT2A (murine malignant glioma); assay: as above; type: cell-based; conditions: psoralen 40 μM; UV light 0, 0.25, 0.5, 1.0 J/cm^2
Procedure: as §1

[5] = tested on: 4T1-HER2 cells; conditions: multi-variable regression on 36 independent irradiation experiments
Procedure: Guava Annexin V flow cell cytometry was used to quantify cytotoxicity in 3 murine tumor cell lines (breast-4T1, glioma-CT2A, and sarcoma KP15B8). […] Cells were incubated in appropriate growing media and buffers before being trypsinized and plated evenly onto twelve (12) well plates for 24 hours. […] The plates were then irradiated with x-rays by placing the plate at a known distance from the x-ray source (e.g., 50 cm). After irradiation the cells were incubated on the plate for 48 hours prior to performing flow cytometry. For compatibility with 96-well Guava Nexin® assay, the remaining cells were again trypsinized (after the 48 hour incubation) and plated onto a 96-well plate. […]
Cells plated in 12-well plates, where individual wells in each plate may receive different experimental conditions (e.g. psoralen concentration), but the same x-ray dose (i.e. all wells in a given plate receive the same x-ray dose). The first metric is metabolically viable cell count (or cell viability) determined from the number of whole cells per well as determined using forward scattering (FSC). […] (All wells on a given plate receive the same dose.) The second metric is Annexin V (+) signal, which is the fraction of the metabolically viable cells which expressed a positive Annexin V signal as determined by flow cell cytometry, and include any cells advancing toward early or late apoptotic cell death. […]

## O=c1ccc2cc3ccoc3cc2o1 [psoralen]
[1]
  component effect in control arms: slightly higher component effect
[2]
  effect of UV light activated psoralen on viable cells: reduce viable cells
[3]
  effect of UV light activated psoralen on viable cells: reduce viable cells
[4]
  effect of UV light activated psoralen on viable cells: reduce viable cells
[5]
  effect on cytotoxicity (Annexin V signal) of component alone: neither psoralen nor phosphor alone had a strong effect on cytotoxicity
